Several values for one entry are separate records, joined by “and”; a condition that tells them apart may be missing. Equal entries are not always repeated. Structures can show the parent of a compound that is named as a salt. Where two headings read alike, the source gives them in different places. Some results are limits rather than exact numbers.

In series [1] the test system is leukemia tumour line L 1210. Put plainly: In vitro cytotoxic activity on leukemia tumour line L 1210. Type of series: cell-based. The settings on record: L 1210, 48 hours contact, 37° C., read-out: I D 50 (concentration which inhibits the proliferation of the cells by 50%). The protocol:
(1) In vitro: ([…] et al., Chem. Biol. Interaction, 1979, 25, 45-58). The cytotoxic activity of the compounds of the invention has been evaluated by in vitro tests. These tests consist of adding increasing concentrations of the compound under test to a cellular culture of the leukemia tumour line L 1210 in an exponential phase of growth. The cellules are incubated at 37° C. in a CO2 incubator and counted every 24 hours. The calculation of the I D 50 (concentration of the product, expressed in 1^-1 micromole, which inhibits the proliferation of the cells by 50%) is made after 48 hours contact.

For another series, the system named is leukemia L 1210. Put plainly: Test for leukemia L 1210, IP/IP, D1-D5. The series is classed as in vivo, CDF1 hybrid mice. As to conditions: 20 mg/kg IP. The protocol: (§1) The antitumour activity was tested in vivo on various tumours inoculated in various ways according to the following general protocol:
(§2) All the male or female mice are inoculated on day D0 with a known quantity of viable tumour cells for ascitic tumours or with a known tumour fragment for solid tumours.
(§3) They are then distributed into various groups. Each group, corresponding to the animals treated by the product under test, is made up of 10 mice. The product under test is dissolved in distilled water and it is administered n times (Dx-Dy), n, y, and x varying according to the protocol chosen, at the rate of 0.1 ml of solution per 10 g by weight of mice treated and at specific doses for each protocol.
(§4) The "negative control" group, corresponding to the animals which are not treated by the product, contains 2√N animals, N being equal to or greater than the total number of mice treated by the product in the same experiment.
(§5) Finally, the tests can also be carried out at the same time as the study of a group called "positive control", of ten animals, which is treated by a molecule, known for its antitumour activity and which can vary according to the protocol chosen, in the same conditions as the groups treated by the product under test.
(§6) The antitumour activity is evaluated, in the case of ascitic tumours, by considering the increase in the survival time of the animals treated in comparison to that of the animals in the "negative control" group, according to the formula: [formula]
(§7) Also, a product is considered as toxic at the dose studied when this T/C value is equal to or less than 85%. In addition, a product is also considered as toxic at the dose studied when the weight variation, expressed in grams and calculated by the formula: […]
(c) Test for leukemia L 1210, IP/IP, D-5 (GERAN et al., Cancer cheomother.,1972, 2, 07-57).
The tests are carried out with CDF1 hybrid mice inoculated by intraperitoneal route with 10^5 leukemia cells from the L 1210 line. The compound under test is administered for 5 days (D1-D5) by intraperitoneal route. The positive control for the test is 5-fluorouracile administered in the same conditions. The number of surviving animals is evaluated on day D60.

A further series relates to leukemia P388. Put plainly: Test for leukemia P388, IP/IP, D1. Type of series: in vivo, CDF1 hybrid mice. As to conditions: 200 mg/kg IP. How it is done: as §1, §2, §3, §4, §5, §6, §7
(§8) The tests are carried out with CDF1 hybrid mice inoculated by intraperitoneal route with 10^6 leukemia cells from the P 388 line. The compound under test is administered for 5 successive days (D1-D5) by intraperitoneal route. The positive control for the test is 5-fluorouracile which is administered in the same conditions. The number of surviving animals is evaluated on day D30.
(b) Test for Leukemia P388, IP/IP, D1 (GERAN et al. Cancer chemother., 1972, 2, 07-57).
The test is carried out according to the preceding protocol, the compound under test being administered only on day D1.

The next series has as its system leukemia P 388. Put plainly: Test of leukemia P 388; IP/IP, D1-5. The series is classed as in vivo, CDF1 hybrid mice. As to conditions: D1-D5; for Number of survivors: day D30; for T/C %: survival time. How it is done: (2) In vivo: (GERAN et al., Cancer Chemother., 1972, 2, 07-57):
as §1, §2, §3, §4, §5, §6
The criterion for activity varies according to the protocol.
as §7
"Average weight of the group measured on day 5--Average weight of the same group measured on day 1"
is equal to or less than 4 g.
(a) Test of lelukemia P 388; IP/IP, D1-5 (GERAN et al., Cancer Chemother., 1972, 2, 07-57).
as §8

The test system of the next series is melanoma B 16. Put plainly: Test for melanoma B 16. The series is classed as in vivo, BDF1 hybrid mice. As to conditions: 0.5 mg/kg IP, D1-D9. The protocol: as §1, §2, §3, §4, §5, §6, §7
(d) Test for melanoma B 16 (GERAN et al., Cancer Chemother., 1972, 2, 07-75).
The tests are carried out with BDF1 hybrid mice inoculated by intraperitoneal route with 0.5 ml of a homogenate of melanoma B 16 made up from 1 g of tumour in 10 ml of physiological serum. The compound under test is administered for 9 days (D1-D9) by intraperitoneal route. The positive control for the test is Cis-Platine administered in the same conditions. The number of surviving animals is evaluated on day D60.

The next series concerns reticulosarcoma M5-M5076. Description: Test for reticulosarcoma M5-M5076. As to conditions: 160 mg/kg IP, D1,5,9,13,17. Type of series: in vivo, BDF1 hybrid mice. The protocol: as §1, §2, §3, §4, §5, §6, §7
The tests are carried out with BDF1 hybrid mice inoculated by intraperitoneal route with 10^6 cells of the M5-M5076 line. The compound under test is administered 5 times successively in sequence (D1,5,9,13,17) by intraperitoneal route. The positive control for the test is cyclophosphamide administered in the same conditions. The number of surviving animals is evaluated on day D75.

Turning to `COc1ccc2c(c1)c1c(NCC(C)CN(C)C)ncc(C)c1n2C` (racemic) [Derivative No. 20, 4,5-dimethyl-1-(3-dimethylamino-2-methylpropylamino)-8-methoxy-5pyrido[4,3-b]i dihydrochloride], the IC50 in series [1] (Mus musculus, L1210, 48 h) amounted to 1000 nM.
The same measure, in the same setting: the result for `Cc1cnc(NCC(C)CN(C)C)c2c3cc(O)ccc3n(C)c12` (racemic) [Derivative No. 21, 4,5-dimethyl-1-(3-dimethylamino-2-methylpropylamino)-8-hydroxy-5H-pyrido[4,3-b]dihydrochloride] reads 10 nM.
Take `O=c1[nH]cc(F)c(=O)[nH]1` [5-Fluorouracile, 5-fluorouracile, reference compound]: the “Median day of survival” value in the series on leukemia L 1210 was 16.0 days; in the series with leukemia P388, 19.0 days; in the series with leukemia P 388 (20 mg/kg IP), 20.1 days and 18.9 days and 19 days and 17.75 days and 16.7 days and 18.8 days and 20 days and 17 days. The “Variation by weight” value in the series on leukemia L 1210 is -0.5 g; in the series on leukemia P388, -3.2 g. Also, the Number of survivors in the series on leukemia L 1210 (day D60), in the series with leukemia P388 (day D30) and with leukemia P 388 (20 mg/kg IP) was 0/10 in each case. The T/C % in the series with leukemia L 1210 (survival time) was 182%; in the series with leukemia P388 (survival time), 173%; in the series on leukemia P 388 (20 mg/kg IP) it was 166% and 164% and 168% and 160% and 147% and 173% and 171% and 154%.
In the case of `[NH2][Pt]([NH2])([Cl])[Cl]` [Cis-Platine, reference compound], in the series on melanoma B 16, the “Median day of survival” value was 36 days and 30.0 days and 38.75 days; the “Variation by weight” value was -0.6 g. Also, the Number of survivors in the series with melanoma B 16 (day D60) was 0/10. Further, the T/C % in the series on melanoma B 16 (survival time) is 131% and 126% and 141%.
Turning to `O=P1(N(CCCl)CCCl)NCCCO1` (centres unmarked) [Cyclopnospnamide, cyclophosphamide, reference compound], the “Median day of survival” value with reticulosarcoma M5-M5076 was > 60 days and 57.0 days. Further, in the series with reticulosarcoma M5-M5076 (day D75), the Number of survivors was 9/10 and 0/10. The T/C % in the series with reticulosarcoma M5-M5076 (survival time) was > 239% and 219% and > 234%.
In the case of `CCN(CC)CCCNc1ncc(C)c2[nH]c3ccccc3c12` [Derivative 1], the IC50 in series [1] (Mus musculus, L1210, 48 h) worked out at 200 nM.
Still for that read-out and setting: then `Cc1cnc(NCCNCCO)c2c1[nH]c1ccccc12` [Derivative 3], with 1140 nM.
Same read-out and setting: the result for `Cc1cnc(NCCCN(C)C)c2c1[nH]c1ccccc12` [Derivative No. 2, 1-(3-dimethylaminopropylamino)-4-methyl-5H-pyrido-[4,3-b]indole] reads 160 nM; that for `CCNCCCNc1ncc(C)c2[nH]c3ccc(OC)cc3c12` [Derivative No. 5, 1-(3-ethylaminopropylamino)-8-methoxy-4-methyl-5H-pyrido[4,3-b]indole], 1200 nM; that for `CCN(CC)CCCNc1ncc(C)c2c1c1cc(OC)ccc1n2C` [Derivative No. 6, 1-(3-diethylaminopropylamino)-4,5-dimethyl-8-methoxy-5H-pyrido[4,3-b]indole], 100 nM.
Regarding `CCN(CC)CCCNc1ncc(C)c2[nH]c3ccc(O)cc3c12` [Derivative No. 8, 1-(diethylaminopropylamino)-8-hydroxy-4-methyl-5H-pyrido[4,3-b]indole], in series [1], the IC50 amounted to 80 nM. For the same compound, in the series on leukemia P 388 (0.625 mg/kg IP), the “Median day of survival” value is 15.1 days, the “Variation by weight” value is on record as -0.5 g, the Number of survivors is on record as 0/10 and the T/C % stood at 136%. For the same compound, in the series with leukemia P 388 (1.25 mg/kg IP), the “Median day of survival” value is 15.7 days, the “Variation by weight (g)” value was “+0.6 g”, the Number of survivors is recorded as 0/10 and the T/C % worked out at 141%. In the series with leukemia P 388 (2.5 mg/kg IP), the “Median day of survival” value is 16.1 days, the “Variation by weight” value is recorded as -1.2 g, the Number of survivors was 0/10 and the T/C % stood at 147%. In addition, in the series on leukemia P 388 (5 mg/kg IP), the “Median day of survival” value worked out at 19.4 days, the “Variation by weight” value was -0.8 g, the Number of survivors is reported as 0/10 and the T/C % is listed as 175%. For the same compound, in the series with leukemia P 388 (10 mg/kg IP), the “Median day of survival” value was 12.0 days, the “Variation by weight” value is reported as -1.1 g, the Number of survivors is reported as 0/10 and the T/C % came to 108%.
Turning to `CCN(CC)CCCNc1ncc(C)c2c1c1ccccc1n2C` [Derivative No. 16, 1-(3-diethylaminopropylamino)-4,5-dimethyl-5H-pyrido[4,3-b]indole dihydrochloride], the IC50 in series [1] (Mus musculus, L1210, 48 h) is 720 nM.
As for `CCN(CC)CCNc1ncc(C)c2c1c1cc(OC)ccc1n2C` [Derivative No. 18, 1-(2-diethylaminoethylamino)-4,5-dimethyl-8-methoxy-5H-pyrido[4,3-b]indole dihydrochloride], the IC50 in series [1] (Mus musculus, L1210, 48 h) was found to be 1200 nM.
The same measure, in the same setting: then `CCN(CC)CCCCNc1ncc(C)c2c1c1cc(OC)ccc1n2C` [Derivative No. 22, 1-(4-diethylaminobutylamino)-4,5-dimethyl-8-methoxy-5H-pyrido[4,3-b]indoledihydrochloride], with 1300 nM; and `CCN(CC)CCCCNc1ncc(C)c2c1c1cc(O)ccc1n2C` [Derivative No. 23, 1-(4-diethylaminobutylamino)-4,5-dimethyl-8-hydroxy-5H-pyrido[4,3-b]indoledihydrochloride], with 310 nM.

Values taken from patent publication US4835160A, “Derivatives of pyridoindole, having anti-tumor properties” (Sanofi, priority 1986, dated 1989).
